Values of other authors, collected in publication PMC11047177 (ESMO Open, 2024).
Read-outs that look alike come from different tables or passages of the source.

Key:
[1] = cited from earlier work
[2] = cited from earlier work; remark: listed apart in the source
[3] = advanced solid tumors, non-Hodgkin's lymphoma, or lower-risk myelodysplastic syndrome
[4] = patients with advanced solid tumors

Compound | TRAE Fatigue [1, 3] [%] | TRAE Nausea [1, 3] [%] | TRAE thrombocytopenia [1, 3] [%] | Preliminary evidence of antitumor activity [1] | Preliminary evidence of antitumor activity [2] | TRAE Anemia [2, 4] [%] | TRAE Dysgeusia [2, 4] [%] | TRAE Fatigue [2, 4] [%] | TRAE Nausea [2, 4] [%]
Nc1nc2cc(CC[C@H]3C[C@@H](n4ccc5c(N)ncnc54)[C@H](O)[C@@H]3O)ccc2cc1Br [JNJ-64619178] | 32 | 39 | 52 | patients achieving PRs | – | – | – | – | –
CC(=O)N1CCC(Nc2cc(C(=O)NC[C@H](O)CN3CCc4ccccc4C3)ncn2)CC1 [GSK3326595] | – | – | – | – | patients achieving PRs | 31 | 26 | 39 | 31
